Where two headings read alike, the source gives them in different places.
Biological target: T1, HDM2 (Homo sapiens, UniProt Q00987)
T1 construct: Thioredoxin (N); made in house; host or cells: E. coli strain BL21(DE3)Rosetta
Experiment: HDM2 FRET assay (inhibition of binding of FITC labeled p53-pocket peptide to HDM2)
Conditions: for IC50: read-out: FRET IC50
Outline: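 Compounds were tested in 10-point serial dilution against 0.5 nM recombinant HDM2 binding 3 nM fluorescein-labeled p53-pocket peptide. Detection used 0.25 nM terbium cryptate anti-6xHis antibody in PBS buffer containing 0.01% BSA and 0.01% Tween-20.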

[1] = 0.5 nM HDM2 (residues 17 to 125), 3nM peptide, two hour incubation at room temperature

T1 sequence (Q00987 17-125): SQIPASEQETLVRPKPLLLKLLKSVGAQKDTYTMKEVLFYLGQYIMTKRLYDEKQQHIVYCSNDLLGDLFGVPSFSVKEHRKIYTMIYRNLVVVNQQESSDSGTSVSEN

## CC(C)C[C@H]1COCCN1c1nc2nc(-c3noc(=O)[nH]3)nc(-c3cccc(Cl)c3)c2n1C[C@H]1CC[C@H](C)CC1 [Example 16.39, 3-{6-(3-chlorophenyl)-7-[(trans-4-methylcyclohexyl)methyl]-8-[(3S)-3-(2-methylpropyl)morpholin-4-yl]-7H-purin-2-yl}-1,2,4-oxadiazol-5(4H)-one]
[1]
  IC50: 47.5 nM

## C[C@@H](Nc1nc(-c2noc(=O)[nH]2)nc2nc(C(C)(O)c3ccccn3)n(C[C@H]3CC[C@H](C)CC3)c12)C1CCC1 (single isomer, unassigned) [Example 22.6]
Table 22
  IC50: 10.4 nM

## C[C@@H]1COCCN1c1nc2nc(-c3noc(=O)[nH]3)nc(N[C@H](C)C3CCC3)c2n1Cc1ccc(C(F)(F)F)cc1 [Example 9.125, 3-(6-{[(1R)-1-cyclobutylethyl]amino}-8-[(3R)-3-methylmorpholin-4-yl]-7-[4-(trifluoromethyl)benzyl]-7H-purin-2-yl)-1,2,4-oxadiazol-5(4H)-one]
Table 9
  IC50: 6.72 nM

## C[C@@H](Nc1nc(-c2n[nH]c(=O)o2)nc2nc(N3CCOC4CCCCC43)n(C[C@H]3CC[C@H](C)CC3)c12)C1CCC1 (single isomer, unassigned) [Example 11.125]
Table 11
  IC50: 7.49 nM

## CC1CCCN(c2nc3nc(-c4noc(=O)[nH]4)nc(N[C@H](C)C4CCC4)c3n2C[C@H]2CC[C@H](C)CC2)C1c1ccccc1 (stereo partly drawn) [Example 11.7, 3-(6-(((R)-1-cyclobutylethyl)amino)-8-(3-methyl-2-phenylpiperidin-1-yl)-7-((trans-4-methylcyclohexyl)methyl)-7H-purin-2-yl)-1,2,4-oxadiazol-5(4H)-one]
Table 11
  IC50: 6.34 nM

## Cc1noc(C(C)Nc2nc3nc(-c4noc(=O)[nH]4)nc(N[C@H](C)C4CCC4)c3n2C[C@H]2CC[C@H](C)CC2)n1 (stereo partly drawn) [Example 11.90, 3-(6-{[(1R)-1-cyclobutylethyl]amino}-7-[(trans-4-methylcyclohexyl)methyl]-8-{[1-(3-methyl-1,2,4-oxadiazol-5-yl)ethyl]amino} -7H-purin-2-yl)-1,2,4-oxadiazol-5(2H)-one]
Table 11
  IC50: 4.04 nM

## C[C@H]1CC[C@H](Cn2c(N3CCOCC34CCC4)nc3nc(-c4n[nH]c(=O)o4)nc(-c4cccc(Cl)c4)c32)CC1 [Example 16.89, 5-[6-(3-chlorophenyl)-7-[(trans-4-methylcyclohexyl)methyl]-8-(8-oxa-5-azaspiro[3.5]non-5-yl)-7H-purin-2-yl]-1,3,4-oxadiazol-2(3H)-one]
[1]
  IC50: 25 nM

## CC[C@H]1CC[C@H](Cn2c(N3CCOCC3)nc3nc(C(=O)O)nc(N[C@H](C)C4CCC4)c32)CC1 [Example 18.19, 6-{[(1R)-1-cyclobutylethyl]amino}-7-[(trans-4-ethylcyclohexyl)methyl]-8-morpholin-4-yl-7H-purine-2-carboxylic acid]
Table 18
  IC50: 13.1 nM

## C[C@@H](Nc1nc(C(=O)O)nc2nc(N3CCCCC3C3CCCCC3)n(Cc3ccc(C(F)(F)F)cc3)c12)C1CCC1 (stereo partly drawn) [Example 9.122, 6-{[(1R)-1-cyclobutylethyl]amino}-8-(2-cyclohexylpiperidin-1-yl)-7-[4-(trifluoromethyl)benzyl]-7H-purine-2-carboxylic acid]
Table 9
  IC50: 4.59 nM

## C[C@@H](Nc1nc(-c2noc(=O)[nH]2)nc2nc(N3CCCC3C3CCCCC3)n(Cc3ccc(C(F)(F)F)cc3)c12)C1CCC1 (stereo partly drawn) [Example 9.103, 3-(6-{[(1R)-1-cyclobutylethyl]amino}-8-(2-cyclohexylpyrrolidin-1-yl)-7-[4-(trifluoromethyl)benzyl]-7H-purin-2-yl)-1,2,4-oxadiazol-5(4H)-one]
Table 9
  IC50: 31.9 nM

## C[C@@H](Nc1nc(C(=O)O)nc2nc(N3CCCC[C@@H]3c3ccccc3)n(C[C@H]3CC[C@H](C)CC3)c12)C1CCC1 [Example 11.12, 6-{[(1R)-1-cyclobutylethyl]amino}-7-[(trans-4-methylcyclohexyl)methyl]-8-[(2R)-2-phenylpiperidin-1-yl]-7H-purine-2-carboxylic acid]
Table 11
  IC50: 2.82 nM

## CCCN(c1nc2nc(C(=O)O)nc(N[C@H](C)C3CCC3)c2n1Cc1ccc(C(F)(F)F)cc1)[C@@H](C)c1cccc(F)c1 [Example 10.26, 6-{[(1R)-1-cyclobutylethyl]amino}-8-{[(1S)-1-(3-fluorophenyl)ethyl](propyl)amino}-7-[4-(trifluoromethyl)benzyl]-7H-purine-2-carboxylic acid]
Table 10
  IC50: 1.94 nM

## CC(C)c1ccnc(-c2nc3nc(C(=O)O)nc(N[C@H](C)C4CCC4)c3n2Cc2ccc(C(F)(F)F)cc2N)c1 [Example 8.1, 7-[2-amino-4-(trifluoromethyl)benzyl]-6-{[(1R)-1-cyclobutylethyl]amino}-8-[4-(propan-2-yl)pyridin-2-yl]-7H-purine-2-carboxylic acid]
Table 8
  IC50: 1.62 nM

## C[C@@H](Nc1nc(C(=O)O)nc2nc(N3CCOC(c4ccccc4)C3)n(Cc3ccc(C(F)(F)F)cc3)c12)C1CCC1 (stereo partly drawn) [Example 9.22, 6-{[(1R)-1-cyclobutylethyl]amino}-8-(2-phenylmorpholin-4-yl)-7-[4-(trifluoromethyl)benzyl]-7H-purine-2-carboxylic acid]
Table 9
  IC50: 12.4 nM

## C[C@H]1CC[C@H](Cn2c(N3CCOC[C@H]3CF)nc3nc(-c4noc(=O)[nH]4)nc(-c4cccc(Cl)c4)c32)CC1 [Example 16.137, 3-{6-(3-chlorophenyl)-8-[(3S)-3-(fluoromethyl)morpholin-4-yl]-7-[(trans-4-methylcyclohexyl)methyl]-7H-purin-2-yl}-1,2,4-oxadiazol-5(4H)-one]
[1]
  IC50: 11.9 nM

## C[C@@H]1CN[C@@H](C)CN1c1nc2nc(-c3noc(=O)[nH]3)nc(N[C@H](C)C3CCC3)c2n1C[C@H]1CC[C@H](C)CC1 [Example 17.21, 3-(6-{[(1R)-1-cyclobutylethyl]amino}-8-[(2R,5S)-2,5-dimethylpiperazin-1-yl]-7-[(trans-4-methylcyclohexyl)methyl]-7H-purin-2-yl)-1,2,4-oxadiazol-5(4H)-one]
Table 17.2
  IC50: 20.1 nM

## C[C@H]1CC[C@H](Cn2c(SC3CCCC3)nc3nc(-c4n[nH]c(=O)o4)nc(-c4cncc(Cl)c4)c32)CC1 [Example 19.4, 5-{6-(5-chloropyridin-3-yl)-8-(cyclopentylsulfanyl)-7-[(trans-4-methylcyclohexyl)methyl]-7H-purin-2-yl}-1,3,4-oxadiazol-2(3H)-one]
Table 19
  IC50: 3.05 nM

## C[C@H]1CC[C@H](Cn2c(N3CCOC[C@H]3CO)nc3nc(-c4noc(=O)[nH]4)nc(-c4cccc(Cl)c4)c32)CC1 [Example 16.45, 3-{6-(3-chlorophenyl)-8-[(3R)-3-(hydroxymethyl)mor pholin-4-yl]-7-[(trans-4-methylcyclohexyl)methyl]-7H-purin-2-yl}-1,2,4-oxadiazol-5(4H)-one]
[1]
  IC50: 47.5 nM

## C[C@@H](Nc1nc(-c2noc(=O)[nH]2)nc2nc(N3CCCC3c3ccccc3)n(C[C@H]3CC[C@H](C)CC3)c12)C1CCC1 (single isomer, unassigned) [Example 11.136]
Table 11
  IC50: 514 nM

## Cc1cccc(-c2nc3nc(C(=O)O)nc(N(C)Cc4ccccc4)c3n2Cc2ccc(C(F)(F)F)cc2)c1 [Example 6.67, 6-[benzyl(methyl)amino]-8-(3-methylphenyl)-7-[4-(trifluoromethyl)benzyl]-7H-purine-2-carboxylic acid]
read-out: inh. at 1000 nM (FRET)
  inhibition at 1 µM: 30%

## COC1(c2nc3nc(-c4noc(=O)[nH]4)nc(-c4cncc(Cl)c4)c3n2C[C@H]2CC[C@H](C)CC2)CCCCC1C (relative stereo) [Example 23.63, 3-{6-(5-chloropyridin-3-yl)-8-(1-methoxy-2-methylcyclohexyl)-7-[(trans-4-methylcyclohexyl)methyl] -7H-purin-2-yl}-1,2,4-oxadiazol-5(4H)-one]
Table 23
  IC50: 7.64 nM

## C[C@@H](Nc1nc(C(=O)O)nc2nc(N3CCCC(C)(C)C3)n(Cc3ccc(C(F)(F)F)cc3)c12)C1CCC1 [Example 9.45, 6-{[(1R)-1-cyclobutylethyl]amino}-8-(3,3-dimethylpiperidin-1-yl)-7-[4-(trifluoromethyl)benzyl]-7H-purine-2-carboxylic acid]
Table 9
  IC50: 7.57 nM

## C[C@@H](Nc1nc(-c2noc(=O)[nH]2)nc2nc(C3(c4cscn4)CC3)n(C[C@H]3CC[C@H](C)CC3)c12)C1CCC1 [Example 22.54, 3-(6-{[(1R)-1-cyclobutylethyl]amino}-7-[(trans-4-methylcyclohexyl)methyl] -8-[1-(1,3-thiazol-4-yl)cyclopropyl]-7H-purin-2-yl)-1,2,4-oxadiazol-5(4H)-one]
Table 22
  IC50: 2.26 nM

## C[C@@H](Nc1nc(-c2noc(=O)[nH]2)nc2nc(NC(CO)c3ccccc3)n(C[C@H]3CC[C@H](C)CC3)c12)C1CCC1 (single isomer, unassigned) [Example 11.121]
Table 11
  IC50: 40.1 nM

## COC(c1ccccc1)c1nc2nc(-c3noc(=O)[nH]3)nc(N[C@H](C)C3CCC3)c2n1C[C@H]1CC[C@H](C)CC1 (single isomer, unassigned) [Example 22.19, 3-(6-{[(1R)-1-cyclobutylethyl]amino}-8-[(R or S)-methoxy(phenyl)methyl]-7-[(trans-4-methylcyclohexyl)methyl]-7H-purin-2-yl)-1,2,4-oxadiazol-5(4H)-one]
Table 22
  IC50: 7.7 nM

## CS(=O)(=O)c1cc(Cl)cc(-c2nc(-c3noc(=O)[nH]3)nc3nc(N4CCOC[C@H]4c4ccccc4)n(C[C@H]4CC[C@H](C)CC4)c23)c1 [Example 16.111, 3-{6-[3-chloro-5-(methylsulfonyl)phenyl]-7-[(trans-4-methylcyclohexyl)methyl]-8-[(3R)-3-phenylmorpholin-4-yl]-7H-purin-2-yl}-1,2,4-oxadiazol-5(4H)-one]
[1]
  IC50: 2.9 nM
